Reference: patent publication US12329732B2, “Citrulline for treatment of sickle cell crisis” (Vanderbilt University, priority 2017, dated 2025)
“And” between values parts separate entries of the source, which are not always exact repeats. Identical values can stand only once. Like-named read-outs stand apart in the source and are kept apart here.

How the values were obtained:
[1] = cited from earlier work
[2] = normal volunteers; cited from earlier work
[3] = Oral citrulline in ICU patients: reaching target citrulline level; format: in vivo, human; conditions: administered orally in an ICU
From the text: Oral administration of citrulline obligates the citrulline to pass through the gut and then the liver which removes the citrulline. This is due to the absorption of the citrulline from the gut and transport directly to the liver by the hepatic portal vein in the first pass through the patient's system. […] This would require multiple dosing regimen to achieve a therapeutic plasma level of citrulline. Thus, it is preferable for citrulline therapy to administer the active agent in a manner which bypasses the gut.

[4] = Pharmacokinetics of intravenous bolus citrulline in patients with sickle cell disease; format: in vivo, human; conditions: for clearance: iv
Experimental: (§1) Background: Hemolysis associated nitric oxide (NO) depletion plays a central role in the pathogenesis of vaso-occlusion in sickle cell disease (SCD). Citrulline is an effective NO booster, even during conditions of inflammation and acute arginase-induced arginine deficiency, characteristic of SCD.
(§2) Methods: Each cohort of participants received an intravenous bolus of 20 mg/kg of citrulline over five minutes with dose increments of 10 mg/kg until a target plasma citrulline level of 80 to 100 μmol/L. FIG. 1. Plasma samples were collected at certain time points for pharmacokinetic studies. Adverse events were followed according to the NCI Common Terminology Criteria for Adverse Events (CTCAE).

[5] = oral twice daily, approximately 0.1 g/kg daily, steady state, cited from earlier work
[6] = Safety / adverse events (NCI CTCAE) of intravenous citrulline in patients with sickle cell disease; format: in vivo, human
Experimental: as §1, §2

[7] = Plasma arginine level after intravenous bolus citrulline in patients with sickle cell disease; format: in vivo, human; conditions: within one hour of bolus intravenous citrulline 20 mg/kg; all subjects
Experimental: as §2

NO production = conditions: acute arginase-induced arginine deficiency; cited from earlier work
NO formation = conditions: oral arginine, cited from earlier work
[8] = children with VOC; cited from earlier work
[9] = inhaled, versus placebo; cited from earlier work
[10] = Average of patients 1-4, 20 mg/kg intravenous bolus
[11] = bolus intravenous citrulline in patients with SCD
[12] = individual patients, 20 mg/kg intravenous bolus over 5 minutes, 20 mg/kg

NC(=O)NCCCC(N)C(=O)O (centres unmarked) [citrulline, 2-amino-5-(carbamoylamino)pentanoic acid]
safety and plasma citrulline levels ([1]; intravenous citrulline (Barr 2007)): may be administered safely to increase and maintain plasma citrulline levels | safety and plasma citrulline levels ([1]; oral citrulline (Smith 2006)): may be administered safely to increase and maintain plasma citrulline levels | circulating arginine concentrations versus oral arginine [2]: increases circulating arginine concentrations more than oral arginine | patients who met the target level of citrulline [3]: 2 out of 3 | Krem [4, 10]: 1.06 h⁻¹ | V [4, 10]: 0.50 L/kg | clearance (in words) [4, 11]: rapid clearance | mean peak level (plasma citrulline) ([4]; first cohort of four participants, intravenous bolus infusion of 20 mg/kg): 259 µmol/L | clearance ([4]; human, plasma, 20 mg/kg, Average of patients 1-4, 20 mg/kg intravenous bolus): 8.67 mL/min/kg | clearance ([4]; human, plasma, 20 mg/kg, individual patients, 20 mg/kg intravenous bolus over 5 minutes): 11.7 mL/min/kg | concentration at 4 h ([4]; human, plasma, 4 hours after the infusion, 20 mg/kg intravenous bolus, read-out: trough level (plasma citrulline)): 20 to 40 µM | CL [4, 12]: 8.5 mL/min/kg and 6.83 mL/min/kg and 7.67 mL/min/kg | Krem [4, 12]: 1.01 1/hr (2×) and 1.34 1/hr and 0.89 1/hr | V [4, 12]: 0.70 L/kg and 0.38 L/kg and 0.46 L/kg (2×) | symptoms of well-being ([5]; ages 10-18): dramatic improvements | plasma arginine levels [5]: raised plasma arginine levels | total leukocyte and segmented neutrophil counts [5]: reductions in high total leukocyte and high segmented neutrophil counts toward or to within normal limits | other side effects ([6]; 20 mg/kg intravenous bolus, four participants): no other reported side effects | safety and tolerability [6, 11]: safe and well tolerated | transient drop of diastolic blood pressure ([6]; one subject, within 30 minutes of study drug, no intervention needed): > 20% | rise in arginine level (mean increment) [7]: 182% | NO production (NO production): increased NO production | microcirculatory flow (NO production): improved microcirculatory flow

N=C(N)NCCC[C@H](N)C(=O)O [arginine]
increase of NO formation (NO formation; normal controls): 68% | change in NO (NO formation; steady-state SCD patients, not overcome by higher doses): paradoxical decrease in NO | pain scores [8]: lowered pain scores | parenteral opioid use [8]: reducing parenteral opioid use | NO production (NO production): did not increase NO production

[N]=O [iNO, nitric oxide]
effect on time-to-resolution of vaso-occlusive crisis [9]: no effect
